Experimental data reported in patent US8178538B2, “Pyridazinones” (Hoffmann-La Roche Inc., priority 2008, dated 2012).

Biological target: T1, PDE10A2 (Homo sapiens, UniProt Q9Y233)
T1 construct: residues serine 449 to aspartate 789; His6 (H6) with thrombin cleavage site (N, cleaved yes); made in house; host or cells: E. coli BL21(DE3) pLysS
Assay: PDE10A2 inhibition, Scintillation Proximity Assay (SPA)
Type: biochemical
Settings: catalytic domain of human PDE10A2 (S449-D789), 0.25 nM enzyme, 50 nM cGMP + 50 nM [3H]-cGMP, 30 minutes at room temperature
Protocol: The following tests were carried out in order to determine the activity of the compounds of the present invention. PDE10 activity of the compounds of the present invention is determined using a Scintillation Proximity Assay (SPA)-based method similar to the one previously described (Fawcett, L. et al., Proc Natl Acad Sci USA (2000) 97(7):3702-3707).
PDE10A1 and PDE10A2 are two splice variants of PDE10A. There are these 2 splice variants known, which differ in the N-terminal part of the protein. The catalytic domains of PDE10A1 and PDE10A2 are identical. The assay for PDE10A2 described below is therefore also representative for PDE10A1 and also for PDE10A in general.
The PDE10A2 assay was performed in a two step procedure in 96-well micro titer plates. The reaction mixture of 80 μl contained 20 mM HEPES/10 mM MgCl2/[…] (pH 7.5), 50 nM cGMP (Sigma) and 50 nM [^3H]-cGMP (GE Healthcare), 0.25 nM PDE10A2 with or without a specific test compound. A range of concentrations of the potential inhibitor was used to generate data for calculating the concentration of inhibitor resulting in 50% of the effect (e.g. IC50, the concentration of the competitor inhibiting PDE10A2 activity 50%). Non-specific activity was tested without the enzyme. The reaction was initiated by addition of the substrate solution (cGMP and [^3H]-cGMP) and allowed to progress for 30 minutes at room temperature. The reaction was terminated by transferring 50 μl of the reaction mixture into an OptiPlate (Perkin Elmer) containing 25 μl of YSi-SPA scintillation beads (GE Healthcare) in 18 mM zinc sulphate solution (stop reagent). After 1 h under shaking, the plate was centrifuged one minute at 1000 rpm to allow beads to settle. Afterwards, radioactive counts were measured on a Perkin Elmer TopCount Scintillation plate reader.
The catalytic domain of human PDE10A2, residues serine 449 to aspartate 789, was amplified by PCR using cDNA (Origene) and the oligonucleotides 5′-GGGGACAAGTTT […]-3′ (SEQ ID NO. 1) (with AttB1 recombination site in bold and thrombin protease cleavage site in italics) and 5′-[…] GCTG-3′ (SEQ ID NO. 2) (with AttB2 recombination site in bold) which conferred Gateway recombination sites. The PCR product was used in a BP recombination reaction with pDONR221 to generate pENTR Thm-PDE10A2(S449-D789) which was DNA sequence verified and then used in an LR recombination reaction with a Gateway modified version of pET11a. The resulting expression vector, placT7.2H6-(gw1)-Thm-PDE10A2(S449-D789) was DNA sequence confirmed and transformed into E. coli strain BL21(DE3) pLysS and recombinant protein was produced in TB medium at 20° C. by induction to a final IPTG concentration of 0.5 mM at an optical density of 1.0 at 600 nm for 20 hours. About 30% of the protein was in the soluble fraction of the cell homogenate. The protein was purified using sequential chromatography on Ni-NTA and HiTrapQ/HiTrapS. After thrombin digest at room temperature a HiTrapChelating/HiTrap Benzamindin chromatography removed impurities, uncleaved protein and thrombin. Final purification of PDE10A2(S449-D789) was performed on a Superdex 75 size exclusion chromatography equilibrated with 25 mM HEPES pH 8.4, 0.15 M NaCl. The yield of pure protein was 2 mg/liter of culture volume is relatively low. The purity of the protein was >95%, monomeric and monodisperse as shown by SDS-PAGE, HPLC and analytical ultracentrifugation.

T1 sequence (Q9Y233 715-1055): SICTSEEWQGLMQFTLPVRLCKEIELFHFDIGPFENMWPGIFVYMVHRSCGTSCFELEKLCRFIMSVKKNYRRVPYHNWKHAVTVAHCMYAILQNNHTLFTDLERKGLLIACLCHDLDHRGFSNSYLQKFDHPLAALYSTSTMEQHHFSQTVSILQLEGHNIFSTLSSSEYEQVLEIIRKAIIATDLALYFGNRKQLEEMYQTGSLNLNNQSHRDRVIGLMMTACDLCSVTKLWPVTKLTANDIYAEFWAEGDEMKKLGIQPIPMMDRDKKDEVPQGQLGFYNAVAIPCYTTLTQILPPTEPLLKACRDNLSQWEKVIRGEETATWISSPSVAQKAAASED

Row | IC50 [nM] | SMILES
1 | 72 | O=c1ccn(-c2ccc(OC(F)(F)F)cc2)nc1-c1ccnn1-c1cccc2c1OC(F)(F)O2 [Example 145, 3-[2-(2,2-Difluoro-benzo[1,3]dioxol-4-yl)-2H-pyrazol-3-yl]-1-(4-trifluoromethoxy-phenyl)-1H-pyridazin-4-one]
2 | 3 | O=c1ccn(-c2cccc(OC(F)(F)F)c2)nc1-c1ccnn1-c1cccc2ccccc12 [Example 80, 3-(2-Naphthalen-1-yl-2H-pyrazol-3-yl)-1-(3-trifluoromethoxy-phenyl)-1H-pyridazin-4-one]
3 | 27 | O=c1ccn(-c2cccc(OC(F)(F)F)c2)nc1-c1ccnn1-c1ccc(F)cc1 [Example 49, 3-[2-(4-Fluoro-phenyl)-2H-pyrazol-3-yl]-1-(3-trifluoromethoxy-phenyl)-1H-pyridazin-4-one]
4 | 2 | CS(=O)(=O)c1cccc(-n2ccc(=O)c(-c3ccnn3-c3cccc4ccccc34)n2)c1 [Example 85, 1-(3-Methanesulfonyl-phenyl)-3-(2-naphthalen-1-yl-2H-pyrazol-3-yl)-1H-pyridazin-4-one]
5 | 51 | O=c1ccn(-c2ccc(OC(F)F)cc2)nc1-c1ccnn1-c1cccc(OC(F)(F)F)c1 [Example 165, 1-(4-Difluoromethoxy-phenyl)-3-[2-(3-trifluoromethoxy-phenyl)-2H-pyrazol-3-yl]-1H-pyridazin-4-one]
6 | 82 | N#Cc1cccc(-n2nccc2-c2nn(-c3cccc4c3OCO4)ccc2=O)c1 [Example 114, 3-[5-(1-Benzo[1,3]dioxol-4-yl-4-oxo-1,4-dihydro-pyridazin-3-yl)-pyrazol-1-yl]-benzonitrile]
7 | 12 | O=c1ccn(-c2ccc(S(=O)(=O)C(F)(F)F)cc2)nc1-c1ccnn1-c1ccccc1F [Example 232, 3-[2-(2-Fluoro-phenyl)-2H-pyrazol-3-yl]-1-(4-trifluoromethanesulfonyl-phenyl)-1H-pyridazin-4-one]
8 | 22 | O=c1ccn(-c2ccc(OC(F)(F)F)cc2)nc1-c1ccnn1-c1ccnc2ccc(Cl)cc12 [Example 224, 3-[2-(6-Chloro-quinolin-4-yl)-2H-pyrazol-3-yl]-1-(4-trifluoromethoxy-phenyl)-1H-pyridazin-4-one]
9 | 13 | CS(=O)(=O)c1ccc(-n2ccc(=O)c(-c3ccnn3-c3cccc4cnccc34)n2)cc1 [Example 192, 3-(2-Isoquinolin-5-yl-2H-pyrazol-3-yl)-1-(4-methanesulfonyl-phenyl)-1H-pyridazin-4-one]
10 | 167 | O=c1ccn(-c2ccccc2)nc1-c1ccnn1-c1ccncc1 [Example 15, 1-Phenyl-3-(2-pyridin-4-yl-2H-pyrazol-3-yl)-1H-pyridazin-4-one]
11 | 888 | NC(=O)c1cccc(-n2nccc2-c2nn(-c3cccc(OC(F)(F)F)c3)ccc2=O)c1 [Example 43, 3-{5-[4-Oxo-1-(3-trifluoromethoxy-phenyl)-1,4-dihydro-pyridazin-3-yl]-pyrazol-1-yl}-benzamide]
12 | 39 | CS(=O)(=O)c1cccc(-n2ccc(=O)c(-c3ccnn3-c3cccc(Cl)c3)n2)c1 [Example 64, 3-[2-(3-Chloro-phenyl)-2H-pyrazol-3-yl]-1-(3-methanesulfonyl-phenyl)-1H-pyridazin-4-one]
13 | 27 | Cc1cc(-n2nccc2-c2nn(-c3cccc(OC(F)(F)F)c3)ccc2=O)c2cc(F)ccc2n1 [Example 177, 3-[2-(6-Fluoro-2-methyl-quinolin-4-yl)-2H-pyrazol-3-yl]-1-(3-trifluoromethoxy-phenyl)-1H-pyridazin-4-one]
14 | 5 | C#Cc1cccc(-n2nccc2-c2nn(-c3ccccc3)ccc2=O)c1 [Example 32, 3-[2-(3-Ethynyl-phenyl)-2H-pyrazol-3-yl]-1-phenyl-1H-pyridazin-4-one]
15 | 80 | N#Cc1cccc(-n2nccc2-c2nn(-c3cccc4c3OC(F)(F)O4)ccc2=O)c1 [Example 129, 3-{5-[1-(2,2-Difluoro-benzo[1,3]dioxol-4-yl)-4-oxo-1,4-dihydro-pyridazin-3-yl]-pyrazol-1-yl}-benzonitrile]
16 | 17 | O=c1ccn(-c2cccc(OC(F)F)c2)nc1-c1ccnn1-c1cccc(Cl)c1 [Example 206, 3-[2-(3-Chloro-phenyl)-2H-pyrazol-3-yl]-1-(3-difluoromethoxy-phenyl)-1H-pyridazin-4-one]
17 | 378 | O=c1ccn(-c2ccccc2)nc1-c1ccnn1-c1ccnc(Cl)c1 [Example 25, 3-[2-(2-Chloro-pyridin-4-yl)-2H-pyrazol-3-yl]-1-phenyl-1H-pyridazin-4-one]
18 | 222 | O=c1ccn(-c2cccc(OC(F)F)c2)nc1-c1ccnn1-c1cccc(F)c1 [Example 98, 1-(3-Difluoromethoxy-phenyl)-3-[2-(3-fluoro-phenyl)-2H-pyrazol-3-yl]-1H-pyridazin-4-one]
19 | 1 | O=c1ccn(-c2ccc(OCC(F)(F)F)cc2)nc1-c1ccnn1-c1ccnc2ccccc12 [Example 259, 3-(2-Quinolin-4-yl-2H-pyrazol-3-yl)-1-[4-(2,2,2-trifluoro-ethoxy)-phenyl]-1H-pyridazin-4-one]
20 | 38 | CNC(=O)c1cccc(-n2ccc(=O)c(-c3ccnn3-c3ccccc3F)n2)c1 [Example 293, 3-{3-[2-(2-Fluoro-phenyl)-2H-pyrazol-3-yl]-4-oxo-4H-pyridazin-1-yl}-N-methyl-benzamide]
21 | 72 | O=c1ccn(-c2cccc(F)c2)nc1-c1ccnn1-c1ccc2c(c1)OCO2 [Example 109, 3-(2-Benzo[1,3]dioxol-5-yl-2H-pyrazol-3-yl)-1-(3-fluoro-phenyl)-1H-pyridazin-4-one]
22 | 13 | O=c1ccn(-c2cccc(OC(F)(F)F)c2)nc1-c1ccnn1-c1cccc2ncccc12 [Example 203, 3-(2-Quinolin-5-yl-2H-pyrazol-3-yl)-1-(3-trifluoromethoxy-phenyl)-1H-pyridazin-4-one]
23 | 46 | O=c1ccn(-c2cccc(OC(F)F)c2)nc1-c1ccnn1-c1ccccc1F [Example 171, 1-(3-Difluoromethoxy-phenyl)-3-[2-(2-fluoro-phenyl)-2H-pyrazol-3-yl]-1H-pyridazin-4-one]
24 | 68 | CS(=O)(=O)c1cccc(-n2ccc(=O)c(-c3ccnn3-c3cccc(F)c3)n2)c1 [Example 86, 3-[2-(3-Fluoro-phenyl)-2H-pyrazol-3-yl]-1-(3-methanesulfonyl-phenyl)-1H-pyridazin-4-one]
25 | 55 | CS(=O)(=O)c1cccc(-n2ccc(=O)c(-c3ccnn3-c3cccc(C#N)c3)n2)c1 [Example 94, 3-{5-[1-(3-Methanesulfonyl-phenyl)-4-oxo-1,4-dihydro-pyridazin-3-yl]-pyrazol-1-yl}-benzonitrile]
26 | 40 | O=c1ccn(-c2ccc(OC(F)(F)F)cc2)nc1-c1ccnn1-c1ccccc1F [Example 34, 3-[2-(2-Fluoro-phenyl)-2H-pyrazol-3-yl]-1-(4-trifluoromethoxy-phenyl)-1H-pyridazin-4-one]
27 | 46 | O=c1ccn(-c2cccc(Cl)c2)nc1-c1ccnn1-c1ccc(Cl)c2ccccc12 [Example 244, 3-[2-(4-Chloro-naphthalen-1-yl)-2H-pyrazol-3-yl]-1-(3-chloro-phenyl)-1H-pyridazin-4-one]
28 | 40 | O=c1ccn(-c2cccc(S(=O)(=O)N3CCCCC3)c2)nc1-c1ccnn1-c1ccnc2ccc(Cl)cc12 [Example 267, 3-[2-(6-Chloro-quinolin-4-yl)-2H-pyrazol-3-yl]-1-[3-(piperidine-1-sulfonyl)-phenyl]-1H-pyridazin-4-one]
29 | 67 | CS(=O)(=O)c1ccc(-n2ccc(=O)c(-c3ccnn3-c3ccc(F)cc3)n2)cc1 [Example 153, 3-[2-(4-Fluoro-phenyl)-2H-pyrazol-3-yl]-1-(4-methanesulfonyl-phenyl)-1H-pyridazin-4-one]
